# Legend:
# Type in all cases: biochemical
# [1] = biological target: Cathepsin L (Homo sapiens, UniProt P07711); test: Cathepsin L inhibition assay, selectivity for cathepsin S over cathepsin L; conditions: ratio of cathepsin L inhibition constant to cathepsin S inhibition constant
# Description: (§1) The optimal substrate for cathepsin L, acetyl-histidine-lysine-phenylalanine-lysine-amino carbamoyl coumarin, was identified from screening a combinatorial library of fluorogenic peptide substrates (Harris, J. L., B. J. Backes, et al.; Proc Natl Acad Sci USA 2000, 97(14), 7754-9). Kinetic measurements are performed in a total reaction volume of 30 μl in 384-well microtiter plates. Cathepsin L, at a final concentration of 0.1 nM (active site), is incubated with the compounds at twelve varying concentrations in a buffer containing 100 mM NaAc (pH5.5), 1 mM EDTA, 100 mM NaCl, 0.01% Brij-35 for 20 minutes at room temperature. Control reactions in the absence of inhibitor are performed in replicates of 24. The reactions are initiated by adding the substrate, acetyl-histidine-lysine-phenylalanine-lysine-amino carbamoyl coumarin, to a final concentration of 20 μM. The rate of substrate hydrolysis is measured by monitoring the increase in fluorescence at an excitation wavelength of 380 nm and an emission wavelength of 450 nm that results from cleavage of the aniline bond in the substrate by the enzyme. The apparent inhibition constants for the compounds are determined from the enzyme progress curves (Kuzmic, P., K. C. Elrod, et al., Anal Biochem 2000, 286(1), 45-50) and are then used to calculate the inhibition constants for competitive inhibitors.
# (§2) Selectivity for cathepsin S in the presence of cathepsin isozymes was determined by the ratio of the cathepsin isozyme inhibition constant of a compound of the present invention to the cathepsin S inhibition constant of the same compound. Preferred compounds of the present invention selective for cathepsin S have ratios of greater than 10. More preferred compounds of the present invention selective for cathepsin S have ratios of greater than 100. Most preferred compounds of the present invention selective for cathepsin S have ratios of greater than 1000.
# [2] = biological target: T1, Cathepsin K (Homo sapiens, UniProt P43235); test: Cathepsin K inhibition assay, selectivity for cathepsin S over cathepsin K; conditions: ratio of cathepsin K inhibition constant to cathepsin S inhibition constant
# T1 sequence (P43235 115-329): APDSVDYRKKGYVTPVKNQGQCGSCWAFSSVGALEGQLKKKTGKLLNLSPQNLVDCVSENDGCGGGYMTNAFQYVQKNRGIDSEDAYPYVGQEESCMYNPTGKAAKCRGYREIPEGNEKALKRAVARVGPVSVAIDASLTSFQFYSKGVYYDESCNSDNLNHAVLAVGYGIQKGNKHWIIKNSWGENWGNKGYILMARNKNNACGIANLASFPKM
# Description: as §1, with “cathepsin K, acetyl-lysine-histidine-proline-lysine-amino” for “cathepsin L, acetyl-histidine-lysine-phenylalanine-lysine-amino”, “et al.,” for “et al.;”, “Cathepsin K,” for “Cathepsin L,”, “of 3.5” for “of 0.1”, “substrate, acetyl-lysine-histidine-proline-lysine-amino” for “substrate, acetyl-histidine-lysine-phenylalanine-lysine-amino”, “of 40” for “of 20”
# as §2
# [3] = biological target: Cathepsin B (Homo sapiens, UniProt P07858); test: Cathepsin B inhibition assay, selectivity for cathepsin S over cathepsin B; conditions: ratio of cathepsin B inhibition constant to cathepsin S inhibition constant
# Description: The optimal substrate for cathepsin B, acetyl-histidine-proline-valine-lysine-amino carbamoyl coumarin, was identified from screening a combinatorial library of fluorogenic peptide substrates (Harris, J. L., B. J. Backes, et al., Proc Natl Acad Sci US A 2000, 97(14), 7754-9). Kinetic measurements are performed in a total reaction volume of 30 μl in 384-well microtiter plates. Cathepsin B, at a final concentration of 1.5 nM (active site), is incubated with the compounds at twelve varying concentrations in a buffer containing 100 mM NaAc (pH5.5), 1 mM EDTA, 100 mM NaCl, 0.01% Brij-35 for 20 minutes at room temperature. Control reactions in the absence of inhibitor are performed in replicates of 24. The reactions are initiated by adding the substrate, acetyl-histidine-proline-valine-lysine-amino carbamoyl coumarin, to a final concentration of 10 μM. The rate of substrate hydrolysis is measured by monitoring the increase in fluorescence at an excitation wavelength of 380 nm and an emission wavelength of 450 nm that results from cleavage of the aniline bond in the substrate by the enzyme. The apparent inhibition constants for the compounds are determined from the enzyme progress curves (Kuzmic, P., K. C. Elrod, et al., Anal Biochem 2000, 286(1), 45-50) and are then used to calculate the inhibition constants for competitive inhibitors.
# as §2
# [4] = biological target: T2, Caspase 3 (Homo sapiens, UniProt P42574); test: Inhibition Assay for Caspase 3; conditions: Caspase-3 inhibition constant; pH7.4; read-out: Ki Cas-3
# T2 sequence (P42574 29-175 limits assumed): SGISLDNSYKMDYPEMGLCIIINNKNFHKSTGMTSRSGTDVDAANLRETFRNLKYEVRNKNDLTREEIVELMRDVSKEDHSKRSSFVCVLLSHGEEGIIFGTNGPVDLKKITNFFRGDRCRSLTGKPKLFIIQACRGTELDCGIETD
# T2 sequence (P42574 176-277 limits assumed): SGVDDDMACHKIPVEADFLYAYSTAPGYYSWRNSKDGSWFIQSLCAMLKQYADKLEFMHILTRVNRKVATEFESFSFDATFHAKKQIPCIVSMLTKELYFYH
# Description: The widely used substrate for caspase 3, acetyl-aspartate-glutamate-valine-aspartic acid-amino carbamoyl coumarin, was used. Kinetic measurements are performed in a total reaction volume of 30 μl in 384-well microtiter plates. Caspase 3, at a final concentration of 0.2-1 nM (active site), is incubated with the compounds at twelve varying concentrations in a buffer containing 20 mM Hepes (pH7.4), 1 mM EDTA, 100 mM NaCl, 0.1% CHAPS, 10% sucrose, 10 mM DTT for 20 minutes at room temperature. Control reactions in the absence of inhibitor are performed in replicates of 12. The reactions are initiated by adding the substrate to a final concentration of 2 μM. The rate of substrate hydrolysis is measured by monitoring the increase in fluorescence at an excitation wavelength of 380 nm and an emission wavelength of 450 nm that results from cleavage of the aniline bond in the substrate by the enzyme. The apparent inhibition constants for the compounds are determined from the enzyme progress curves (Kuzmic, Elrod et al. 2000) and are then used to calculate the inhibition constants for competitive inhibitors (Km=9.71 μM).
# Cathepsin L, sequence (P07711 114-333, species assumed): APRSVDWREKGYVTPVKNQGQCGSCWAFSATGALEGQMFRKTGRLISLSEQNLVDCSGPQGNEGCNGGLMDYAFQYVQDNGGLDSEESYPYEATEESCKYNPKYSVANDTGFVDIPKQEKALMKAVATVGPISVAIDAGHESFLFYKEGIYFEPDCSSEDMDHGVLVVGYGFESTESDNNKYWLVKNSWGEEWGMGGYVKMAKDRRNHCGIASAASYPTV
SMILES,Selectivity for Cat. S over Cat. L [1],Selectivity for Cat. S over Cat. K [2],Selectivity for Cat. S over Cat. B [3],Ki [4] [µM]
"O=C1C[C@H](NC(=O)[C@H](CC2CCCCC2)OC(=O)N2CCOCC2)C(O)O1 (stereo partly drawn) [Example 3, (3S)-{3-cyclohexyl-(2S)-(morpholine-4-carbonyloxy)-propionylamino}-4-oxo-butyric acid]","+ (+, >10)","+ (+, >10)","+++ (+++, >1000)",> 10
"O=C1C[C@H](NC(=O)[C@H](CC2CCCC2)NC(=O)N2CCOCC2)C(O)O1 (stereo partly drawn) [Example 2, (3S)-{3-Cyclopentyl-(2S)-[(morpholine-4-carbonyl)-amino]-propionylamino}-4-oxo-butyric acid]","++ (++, >100)","++ (++, >100)","+++ (+++, >1000)",> 10
"O=C1C[C@H](NC(=O)[C@H](CC2CCCCC2)NS(=O)(=O)c2cccc(OC(F)(F)F)c2)C(O)O1 (stereo partly drawn) [Example 7, (3S)-[3-Cyclohexyl-(2S)-(3-trifluoromethoxy-benzenesulfonylamino)-propionylamino]-4-oxo-butyric acid]","++ (++, >100)","++ (++, >100)","+++ (+++, >1000)",> 10
"O=C[C@H](CC(=O)O)NC(=O)[C@@H](CC(=O)N1CCOCC1)CC1CCCC1 [Example 4, (3S)-[(2R)-Cyclopentylmethyl-4-morpholin-4-yl-4-oxo-butyrylamino]-4-oxo-butyric acid]","++ (++, >100)","+ (+, >10)","+++ (+++, >1000)",> 10
"O=C1C[C@H](NC(=O)O[C@@H](CC2CCCC2)Cn2cnc3cc(Cl)c(Cl)cc32)C(O)O1 (stereo partly drawn) [Example 5, (3S)-[(1S)-Cyclopentylmethyl-2-(5,6-dichloro-benzoimidazol-1-yl)-ethoxycarbonylamino]-4-oxo-butyric acid]","+ (+, >10)","+ (+, >10)","+++ (+++, >1000)",> 10
"O=C1C[C@H](NC(=O)[C@@H](CC(=O)N2CCOCC2)CC2CCCCC2)C(O)O1 (stereo partly drawn) [Example 6, (3S)-{(2R)-Cyclohexylmethyl-4-morpholin-4-yl-4-oxo-butyrylamino}-4-oxo-butyric acid]","++ (++, >100)","++ (++, >100)","+++ (+++, >1000)",> 10
"O=C1C[C@H](NC(=O)[C@H](CC2CCCC2)NS(=O)(=O)c2cccc(OC(F)(F)F)c2)C(O)O1 (stereo partly drawn) [Example 8, (3S)-[3-Cyclopentyl-(2S)-(3-trifluoromethoxy-benzenesulfonylamino)-propionylamino]-4-oxo-butyric acid]","++ (++, >100)","++ (++, >100)","+++ (+++, >1000)",> 1
"O=C1C[C@H](NC(=O)O[C@@H](CC2CCCCC2)C(=O)N2CCOCC2)C(O)O1 (stereo partly drawn) [Example 10, (3S)-[2-cyclohexyl-(1S)-(morpholin-4-carbonyl)-ethoxycarbonylamino]-4-oxo-butyric acid]","+++ (+++, >1000)","++ (++, >100)","+++ (+++, >1000)",> 100
"CC(C)(C)C[C@H](OC(=O)N[C@H]1CC(=O)OC1O)C(=O)N1CCOCC1 (stereo partly drawn) [Example 9, (3S)-[3,3-Dimethyl-(1S)-(morpholine-4-carbonyl)-butoxycarbonylamino]-4-oxo-butyric acid]","++ (++, >100)",,"++ (++, >100)",> 100
"O=C1C[C@H](NC(=O)[C@H](CC2CCCC2)NC(=O)c2ccc(-c3cccc(F)c3)o2)C(O)O1 (stereo partly drawn) [Example 1, (3S)-(3-Cyclopentyl-(2S)-{[5-(3-fluoro-phenyl)-furan-2-carbonyl]-amino}-propionylamino)-4-oxo-butyric acid]","++ (++, >100)","+ (+, >10)","+++ (+++, >1000)",> 1
